Where “and” joins values, the source holds several entries; their conditions need not be identical. Equal values may be shown once. Where a SMILES comes first, the peptide text is derived from it. [ ]: non-standard residue; d: D form. Hyp = O=C(O)[C@@H]1C[C@@H](O)CN1

The assay has as its system GM-CSF. Kind of assay: Example 9 Luminex, LPS hPBMCs: GM-CSF. It is filed as cell-based, human. How it is done:
Treatment Human PBMCs were pretreated with YY-101, YDE-011 and YDE-043 or reference compound; Xiidra® at various concentration (ranging from 1 nM to 100 uM) for 2 h before stimulation. An equal volume of 0.5% DMSO was used as a vehicle control. Then, the cells were treated with LPS at 5 ug/ml. The supernatants from treated cells were harvested at 24 h and placed in a 96 well for Luminex cytokine & chemokine profiling using a Luminex 200 multiplex assay (Luminex; R&D system, USA).
The main study arm with triplicate wells per group in a 24-well plate: • 1. Blank • 2. PBMC: 0.5% DMSO • 3. PBMC+LPS (5 ug/ml) • 4. PBMC+YY-101 100 uM • 5. PBMC+YY-101 10 uM • 6. PBMC+YY-101 1 uM • 7. PBMC+YY-101 0.1 uM • 8. PBMC+YY-101 0.01 uM • 9. PBMC+LPS (5 ug/ml)+Xiidra®100 uM • 10. PBMC+LPS (5 ug/ml)+Xiidra® 10 uM • 11. PBMC+LPS (5 ug/ml)+Xiidra® 1 uM • 12. PBMC+LPS (5 ug/ml)+Xiidra®0.1 uM • 13. PBMC+LPS (5 ug/ml)+Xiidra®0.01 uM • 14. PBMC+LPS (5 ug/ml)+Xiidra®0.001 uM • 15. PBMC+LPS (5 ug/ml)+YY-101 100 uM • 16. PBMC+LPS (5 ug/ml)+YY-101 10 uM • 17. PBMC+LPS (5 ug/ml)+YY-101 1 uM • 18. PBMC+LPS (5 ug/ml)+YY-101 0.1 uM • 19. PBMC+LPS (5 ug/ml)+YY-101 0.01 uM • 20. PBMC+LPS (5 ug/ml)+YY-101 0.001 uM • 21. PBMC+LPS (5 ug/ml)+YDE-011 100 uM • 22. PBMC+LPS (5 ug/ml)+YDE-011 10 uM • 23. PBMC+LPS (5 ug/ml)+YDE-011 1 uM • 24. PBMC+LPS (5 ug/ml)+YDE-011 0.1 uM • 25. PBMC+LPS (5 ug/ml)+YDE-011 0.01 uM • 26. PBMC+LPS (5 ug/ml)+YDE-011 0.001 uM • 27. PBMC+LPS (5 ug/ml)+YDE-043 100 uM • 28. PBMC+LPS (5 ug/ml)+YDE-043 10 uM • 29. PBMC+LPS (5 ug/ml)+YDE-043 1 uM • 30. PBMC+LPS (5 ug/ml)+YDE-043 0.1 uM • 31. PBMC+LPS (5 ug/ml)+YDE-043 0.01 uM • 32. PBMC+LPS (5 ug/ml)+YDE-043 0.001 uM
Multiplex assay was used to measure 30 cytokines and chemokines. The 1:2, 1:10 and 1:200 diluted cell supernatant and serial dilution of the standard were dispensed into a 96 well plate at 50 ul/well. Then, the pre-mixed cocktail of antibody-coated magnetic beads was dispensed at 50 ul/well and incubated at room temperature for 2 h in a horizontal orbital microplate shaker at 800±500 rpm. The beads were washed using a magnetic device to prevent loss. The biotin-antibody was dispensed in 50 ul of each well and incubated at room temperature for 1 h in a shaker at 800±500 rpm. After washing, streptavidin-PE was added at 50 ul/well and incubated at room temperature for 30 min in a shaker under the same conditions. Finally, after washing, wash buffer (100 ul/well) was added to the plate and incubated in a shaker for 2 min. The Luminex™ 200 setting were set according to the manufacturer's protocol. The data was calculated with a standard five-parameter logistic nonlinear regression analysis of the data (xPonent software 4.2, USA). The levels of cytokine/chemokine are normalized to the live cell counts (1×10^5 cells/mL) and presented as concentrations per mL (pg/mL or ng/mL).

Setting [1] is: PBMC + LPS(5 ug/ml) + test article 0.001 uM, Mean.
The mark [2] stands for this setting: PBMC + LPS(5 ug/ml) + test article 0.001 uM, single replicates.
Where [3] appears, read: PBMC + LPS(5 ug/ml) + test article 0.01 uM, Mean.
[4] abbreviates: PBMC + LPS(5 ug/ml) + test article 0.01 uM, single replicates.
The mark [5] stands for this setting: PBMC + LPS(5 ug/ml) + test article 0.1 uM, Mean.
Where [6] appears, read: PBMC + LPS(5 ug/ml) + test article 0.1 uM, single replicates.
[7] abbreviates: PBMC + LPS(5 ug/ml) + test article 1 uM, Mean.
The mark [8] stands for this setting: PBMC + LPS(5 ug/ml) + test article 1 uM, single replicates.
Setting [9] is: PBMC + LPS(5 ug/ml) + test article 10 uM, Mean.
Setting [10] is: PBMC + LPS(5 ug/ml) + test article 10 uM, single replicates.
Where [11] appears, read: PBMC + LPS(5 ug/ml) + test article 100 uM, Mean.
The mark [12] stands for this setting: PBMC + LPS(5 ug/ml) + test article 100 uM, single replicates.

As to `CC(C)C[C@H](NC(=O)CNC(=O)[C@H](CC(C)C)NC(=O)[C@H](CCC(N)=O)NC(=O)CNC(=O)[C@@H]1C[C@@H](O)CN1)C(=O)N[C@@H](C)C(=O)NCC(=O)N1CCC[C@H]1C(=O)N[C@@H](CCCCN)C(=O)O` [YDE-011] (H-[Hyp]GQLGLAGPK-OH), the “GM-CSF Concentration” value under setting [1] was 97.0 pg/mL; the “GM-CSF Concentration” value under setting [2] was 92.5 pg/mL and 96.3 pg/mL and 102.1 pg/mL; the “GM-CSF Concentration” value under setting [3] turned out to be 103.2 pg/mL; the “GM-CSF Concentration” value under setting [4] was 90.4 pg/mL and 108.0 pg/mL and 111.3 pg/mL; the “GM-CSF Concentration” value under setting [5] is 95.6 pg/mL; the “GM-CSF Concentration” value under setting [6] is 100.5 pg/mL and 90.8 pg/mL and 95.4 pg/mL. In addition, the “GM-CSF Concentration” value is, setting by setting: under setting [7], 93.9 pg/mL; under setting [8], 96.3 pg/mL and 92.5 pg/mL and 92.9 pg/mL; under setting [9], 98.2 pg/mL; under setting [10], 103.0 pg/mL and 92.9 pg/mL and 98.8 pg/mL; under setting [11], 135.7 pg/mL; under setting [12], 149.0 pg/mL and 127.8 pg/mL and 130.3 pg/mL. The GM-CSF conc/live cell under setting [1] was 18.3 pg/10^5; the GM-CSF conc/live cell under setting [2] is 20.6 pg/10^5 and 16.6 pg/10^5 and 17.6 pg/10^5; the GM-CSF conc/live cell under setting [3] is recorded as 17.9 pg/10^5; the GM-CSF conc/live cell under setting [4] was 14.3 pg/10^5 and 17.4 pg/10^5 and 21.8 pg/10^5; the GM-CSF conc/live cell under setting [5] turned out to be 16.7 pg/10^5; the GM-CSF conc/live cell under setting [6] is 15.2 pg/10^5 and 18.2 pg/10^5 and 16.7 pg/10^5. The GM-CSF conc/live cell runs as follows: under setting [7], 18.7 pg/10^5; under setting [8], 17.5 pg/10^5 and 19.3 pg/10^5 and 19.4 pg/10^5; under setting [9], 18.7 pg/10^5; under setting [10], 19.1 pg/10^5 and 16.0 pg/10^5 and 21.0 pg/10^5; under setting [11], 22.4 pg/10^5; under setting [12], 24.4 pg/10^5 and 21.0 pg/10^5 and 21.7 pg/10^5.
Turning to `CC(C)C[C@H](NC(=O)[C@H](CCC(N)=O)NC(=O)CNC(=O)[C@@H]1C[C@@H](O)CN1)C(=O)NCC(=O)O` [YDE-043] (H-[Hyp]GQLG-OH; N-terminus and C-terminus assumed), the “GM-CSF Concentration” value is 96.8 pg/mL under setting [1]; 85.3 pg/mL and 103.8 pg/mL and 101.3 pg/mL under setting [2]; 92.9 pg/mL under setting [3]; 94.6 pg/mL and 86.1 pg/mL and 97.9 pg/mL under setting [4]; 92.5 pg/mL under setting [5]; 87.8 pg/mL and 91.2 pg/mL and 98.4 pg/mL under setting [6]. The “GM-CSF Concentration” value under setting [7] was 91.6 pg/mL; the “GM-CSF Concentration” value under setting [8] is 89.5 pg/mL and 92.1 pg/mL and 93.3 pg/mL; the “GM-CSF Concentration” value under setting [9] came to 101.0 pg/mL; the “GM-CSF Concentration” value under setting [10] was 102.1 pg/mL and 96.3 pg/mL and 104.6 pg/mL; the “GM-CSF Concentration” value under setting [11] was determined as 137.2 pg/mL; the “GM-CSF Concentration” value under setting [12] is 140.1 pg/mL and 134.4 pg/mL. Also, the GM-CSF conc/live cell reads like this: under setting [1], 19.6 pg/10^5; under setting [2], 19.4 pg/10^5 and 17.3 pg/10^5 and 22.0 pg/10^5; under setting [3], 17.9 pg/10^5; under setting [4], 21.0 pg/10^5 and 13.1 pg/10^5 and 19.6 pg/10^5; under setting [5], 17.1 pg/10^5; under setting [6], 17.6 pg/10^5 (2×) and 16.3 pg/10^5. Also, the GM-CSF conc/live cell is 17.4 pg/10^5 under setting [7]; 15.4 pg/10^5 and 19.2 pg/10^5 and 17.6 pg/10^5 under setting [8]; 18.7 pg/10^5 under setting [9]; 19.6 pg/10^5 and 17.8 pg/10^5 and 18.7 pg/10^5 under setting [10]; 21.8 pg/10^5 under setting [11]; 22.6 pg/10^5 and 21.0 pg/10^5 under setting [12].

For the origin of these results see US20230146455A1, “TREATMENT OF INFLAMMATORY DISEASES WITH PEPTIDES AND PHARMACEUTICAL COMPOSITIONS” (Yuyu Pharma, Inc., priority 2020, published 2023).
